The values below are quoted from earlier work in patent US6376509B2, “Melanocortin receptor agonists” (Merck & Co., Inc., priority 2000, dated 2002).

The test system of one data set is erectile dysfunction. The following applies: for duration of effect / onset of action: after an oral dose; for share of patients with adequate response: oral, men with erectile dysfunction.
Data set [1] concerns psychogenic erectile dysfunction.

On to `Cc1ccc(N(CC2=NCCN2)c2cccc(O)c2)cc1` [phentolamine], for which, in the data set with erectile dysfunction, the duration of effect was 2 h, the onset of action was 5 to 30 min and the “share of patients with adequate response” value was 35-40%.
In the case of `CCCc1nn(C)c2c(=O)[nH]c(-c3cc(S(=O)(=O)N4CCN(C)CC4)ccc3OCC)nc12` [sildenafil], in the data set with erectile dysfunction, the duration of effect result is listed as “about 4 hours”, the onset of action is 30 to 60 min and the “share of patients with adequate response” value is on record as “about 70%”.
On to “Ac-Nle-c[Asp-His-DPhe-Arg-Trp-Lys]-NH2 [MT-II]”, for which, in data set [1] (in vivo, po), the “absorption into the systemic circulation” value is on record as “not absorbed into the systemic circulation”. Further, the response rate in data set [1] (injected intramuscularly or subcutaneously, males with psychogenic erectile dysfunction) is given as 75%. Besides, in data set [1] (subcutaneous injection), the duration of action entry is “approximately 2.5 hours” and the “time to onset of erection” value was 10 to 20 min.
